Experimental data reported in US20140241988A1, “METHODS AND COMPOSITIONS FOR TREATING ATRIAL FIBRILLATION” (The Regents of The University of Michigan, priority 2013, published 2014).
Entries after “also recorded” stand apart in the source; their conditions may differ.

How the values were obtained:
FOXO1 = assay: Western blot of FOXO1 phosphorylation; format: cell-based, rat
Method: Cell Treatment: Isolated adult rat cardiac myocytes were treated with FCM or TGF-β1 (R and D systems, Minneapolis, Minn.) for 3 days in serum free medium. For PI3K pathway inhibition cells were pretreated (30 min) with 10 μM […] (Cayman Chemicals, Ann Arbor) before the treatment with TGF-β1. mRNA analysis by quantitative PCR (qPCR): Cardiac myocytes were washed with PBS and lysed with lysis buffer. RNA was isolated from the myocardial tissue using RNAeasy kit from Qiagen (Qiagen, Valencia, Calif.) according to the manufacturer's instructions. Isolated RNA from these samples was treated with DNase for 15 min at room temperature (Qiagen, Valencia, Calif.). 100 ng of DNA-free total poly-A tail RNA (mRNA) was first subjected to synthesis of cDNA using Oligo dT primers applying SuperScript III First-Strand Synthesis System from Invitrogen (Invitrogen, Carlsbad, Calif.) according to the manufacturer's instructions. cDNA from 20 ng of total RNA was then subjected to real-time RT-PCR using predesigned taqman probe primers specific for rat Scn5a (Rn00565502), Kcnip2 (Kchip2; Rn01411451) and kcnd2 (Rn01456260) (Applied Biosystems, California). No-template controls and no-RT controls were run during each experiment to detect any RNA and/or DNA contamination. Results are expressed as fold expression of gene of interest normalized to GAPDH expression in the sample. Western blotting: Control and treated cardiac myocytes were washed in cold PBS, lysed directly in the modified loading buffer (25 mmol/l Tris.HCl; 150 mmol/l NaCl; 1 mmol/l EDTA; 4 mmol/l NaF; 2 mmol/l Sodium ortho-vanadate; 1% Triton X-100, protease inhibitor, 5% glycerol, 1% SDS, 0.05% bromophenol blue, 5% β mercaptoethanol) and sonicated. The lysate (20 μl) were then subjected SDS-PAGE as described earlier. […] Patch-clamp experiments: Whole-cell ionic currents were recorded from adult rat ventricular myocytes. […] Voltage-dependence of inactivation was assessed by holding cells at various potentials from −160 to −40 mV followed by a 30 msec test pulse to −40 mV to elicit INa. […]

SCN5A = assay: qPCR mRNA expression; format: cell-based, rat
Method: (§1) Cell Treatment: Isolated adult rat cardiac myocytes were treated with FCM or TGF-β1 (R and D systems, Minneapolis, Minn.) for 3 days in serum free medium. For PI3K pathway inhibition cells were pretreated (30 min) with 10 μM […] (Cayman Chemicals, Ann Arbor) before the treatment with TGF-β1. mRNA analysis by quantitative PCR (qPCR): Cardiac myocytes were washed with PBS and lysed with lysis buffer. RNA was isolated from the myocardial tissue using RNAeasy kit from Qiagen (Qiagen, Valencia, Calif.) according to the manufacturer's instructions. Isolated RNA from these samples was treated with DNase for 15 min at room temperature (Qiagen, Valencia, Calif.). 100 ng of DNA-free total poly-A tail RNA (mRNA) was first subjected to synthesis of cDNA using Oligo dT primers applying SuperScript III First-Strand Synthesis System from Invitrogen (Invitrogen, Carlsbad, Calif.) according to the manufacturer's instructions. cDNA from 20 ng of total RNA was then subjected to real-time RT-PCR using predesigned taqman probe primers specific for rat Scn5a (Rn00565502), Kcnip2 (Kchip2; Rn01411451) and kcnd2 (Rn01456260) (Applied Biosystems, California). No-template controls and no-RT controls were run during each experiment to detect any RNA and/or DNA contamination. Results are expressed as fold expression of gene of interest normalized to GAPDH expression in the sample. Western blotting: Control and treated cardiac myocytes were washed in cold PBS, lysed directly in the modified loading buffer (25 mmol/l Tris.HCl; 150 mmol/l NaCl; 1 mmol/l EDTA; 4 mmol/l NaF; 2 mmol/l Sodium ortho-vanadate; 1% Triton X-100, protease inhibitor, 5% glycerol, 1% SDS, 0.05% bromophenol blue, 5% β mercaptoethanol) and sonicated. The lysate (20 μl) were then subjected SDS-PAGE as described earlier. The blots were incubated with rabbit pFOXO1 antibody, 1:500 (Cell Signaling) or rabbit GAPDH antibody, 1:5000 (Sigma-Aldrich, St. Louis, Mo.). Patch-clamp experiments: Whole-cell ionic currents were recorded from adult rat ventricular myocytes. All recordings were conducted at room temperature. Sodium current recordings were conducted in a low-sodium extracellular solution containing (in mM): NaCl, 10; MgCl2, 1; CaCl2, 1.8; CdCl2, 0.1; HEPES, 20; CsCl, 127.5; glucose, 11. The pipette solution contained (in mM): NaCl, 5; CsF, 135; EGTA, 10; MgATP, 5; HEPES, 5. To characterize the voltage dependence of the peak INa, single cells were held at −120 mV, and 200 msec voltage steps were applied from −90 to +30 mV in 5 mV increments. The interval between voltage steps was 3 sec. Voltage-dependence of inactivation was assessed by holding cells at various potentials from −160 to −40 mV followed by a 30 msec test pulse to −40 mV to elicit INa. […]

[1] = system: adult rat ventricular myocytes; assay: Current clamp action potential recording; format: cell-based
Method: Action potentials were recorded from individual myocytes using the current clamp mode of the MultiClamp 700B amplifier after gigaseal formation and patch break. Stimulus pulses (1-2 ms duration) were generated using a World Precision Instruments DS8000 stimulator (Sarasota, Fla.). The bath solution contained (in mM): NaCl: 148, KCl: 5.4, MgCl2: 1, CaCl2 1.8, NaH2PO4: 0.4, HEPES: 15, Glucose: 5.5, pH 7.4 with NaOH. The pipette solution contained (in mM), KCl: 20, K-aspartate: 90, KH2PO4: 10, EDTA: 5.0, K2ATP: 1.9, HEPES: 5.0 and Mg2+ 7.9; pH 7.2 (KOH)
(§2) In all experiments, cells were exposed to one of the following for 72 hrs prior to the experiment: control medium, FCM or TGF-β1.

KCND2 = assay: qPCR mRNA expression; format: cell-based, rat; settings: 1 ng/ml, 72 hr
Method: as §1

KCNIP2 = assay: qPCR mRNA expression; format: cell-based, rat; settings: 1 ng/ml, 72 hr
Method: as §1

[2] = system: adult rat ventricular myocytes; assay: Whole-cell patch clamp, peak inward sodium current (INa); format: cell-based
Method: as §1

[3] = system: adult rat ventricular myocytes; assay: Whole-cell patch clamp, transient outward potassium current (Ito); format: cell-based; settings: 72 hr
Source text: The extracellular solution for transient outward potassium current (Ito) contained (in mM): 136 NaCl, 4 KCl, 1.8 CaCl2, 2 MgCl2, 10 HEPES, 0.03 tetrodotoxin, 0.01 nifedipine, and 14 glucose, pH 7.35. The pipette solution contained (in mM):135 KCl, 1 MgCl2, 10 EGTA, 10 HEPES, 5 glucose, pH 7.2. Voltage-gated outward K+ currents were evoked during 5-s depolarizing voltage steps to potentials between −40 and +60 mV from a holding potential of −70 mV; voltage steps were presented in 10 mV increments at 15 s intervals
as §2

[4] = system: adult sheep atrial myofibroblasts; assay: Cell proliferation assay (WST reagent); format: cell-based; settings: Gal-3 1-30 μg/ml, 24 hours, SFM
Method: (§3) Wound healing experiments were performed to investigate if exogenous Gal-3 can increase myofibroblast migration in vitro (FIG. 3). Adult sheep atrial fibroblasts were cultured in 96-well plates until confluent. Before serum starvation, cells were stained with cell tracker dye and DAPI. A wound was created by scraping a semi-confluent monolayer of cells with a 1 ml pipette tip. Thereafter, cells underwent serum starvation in DMEM with 5% FBS for 6 hrs. Comparisons were made between untreated and Gal-3 treated (1 μg/ml or 10 μg ml) cells. The wound was imaged at 4 different locations at 3 different time points (days 0, 1 and 2). The size of the wound was quantified using the NIS element program by Nikon. […] Next, to investigate the effects of Gal-3 on myofibroblast proliferation, adult sheep atrial fibroblasts were treated with recombinant human Gal-3 (EMD chemicals, USA) for 24 hours in the presence of SFM. FM was included as a positive control. Cell proliferation was measured using cell proliferation reagent WST (Roche Diagnostics, USA). […] Such concentrations are in the same range used previously (Sharma et al., Circulation. 2004; 110:3121-3128) to investigate Gal-3 induced fibroblast proliferation in the cardiomyopathic heart.

[5] = system: adult sheep atrial fibroblasts; assay: Wound healing (migration) assay; format: cell-based; settings: Gal-3 10 μg/ml, days 0-2
Method: as §3

O=c1cc(N2CCOCC2)oc2c(-c3ccccc3)cccc12 [LY 29004, reference compound]
phosphorylation of FOXO1 in TGF-β1 treated cells (FOXO1; pretreated with PI3K inhibitor): inhibited
TGF-β1 induced increase in SCN5A transcription (SCN5A; pretreated with PI3K inhibitor (10 μM, 30 min)): failed to show increased SCN5A transcription

TGF-β1: exogenous TGF-β1 cytokine (R and D systems, Minneapolis, Minn.)
increase in phosphorylated FOXO1 vs control (FOXO1; 1 ng/ml): 67%
time of peak FOXO1 phosphorylation (FOXO1; 1 ng/ml): 15 min
APD30 ([1]; 10 ng/ml, BCL 1000 ms): 29.1 ± 5.6 ms
APD30 times larger than control ([1]; 10 ng/ml, BCL 1000 ms): > 3.5 times
APD / early afterdepolarizations ([1]; 50 ng/ml): APD was so prolonged that some cells early after depolarizations (EADs)
decrease of KCND2 expression with respect to control (KCND2): 50.6%
reduction of KCNIP2 mRNA levels (KCNIP2): 77%
SCN5A transcript levels, fold increase (SCN5A; 1 ng/ml, 72 hr): 1.73±0.26 fold
more inward current compared to control medium ([2]; 1 ng/ml, at −40V (so in the source)): about 40%
EC50 for increase of peak inward INa density ([2]; 72 hours, 0.001-1.0 ng/ml): 0.007 ng/mL
voltage dependence of activation (m∞) and inactivation (h∞) ([2]; 72 hr treatment): neither the m∞ nor the h∞ curve was modified
maximum INa increase ([2]; at 1 ng/ml (also seen at 10 ng/ml), 72 hours): about 40%
peak Ito ([3]; 1 ng/ml): significantly reduced the peak Ito but to a much modest level
Ito current density ([3]; 10 ng/ml, 60 mV): 12.6±0.98
Ito current density, % of control levels ([3]; 10 ng/ml, 60 mV): 57%
reduction of Ito current density ([3]; 10 ng/ml, +20 mV): 42%

Gal-3: recombinant human Gal-3 (EMD chemicals, USA)
proliferation (number) of adult sheep atrial myofibroblasts [4]: increased the number of adult sheep atrial myofibroblasts in a concentration-dependent manner; also recorded: increases proliferation
rate of migration / wound healing [5]: significantly increased the rate of migration and promoted wound healing; also recorded: increases the rate of wound healing
